How the values were obtained:
mixture of bacteria = experiment: CTFA Preservative Challenge Test in shampoo, mixed bacteria; assay type: cell-based; settings: for concentration of the component alone required to yield 100% retardation (Qa, Qb): percent by weight in shampoo, plate count <10 cfu/g after 7 days; for Day 7 Count Mixed Bacteria: shampoo containing the sample, initial count 4×10^6 cfu/mL, surviving organisms on day 7
Experimental: (§1) The CTFA Preservative Challenge Test was performed on a shampoo containing the samples below against a mixture of fungi (C. albicans (ATCC #10231) and A. brasiliensis (ATCC #16404)) having an initial count of 7.9×10^5 cfu/mL or a mixture of bacteria having an initial count of 4×10^6 cfu/mL. The shampoos inoculated with bacteria were allowed to stand for 14 days and the shampoos inoculated with fungi were allowed to stand for 7 days. The samples were evaluated for surviving organisms on day 7 for fungi-innoculated shampoos and days 7 and 14 for bacteria-innoculated shampoos.
From the table, synergism for the combinations above against mixed bacteria in shampoo was calculated by the method described in C. E. Kull et al., “Mixtures of Quaternary Ammonium Compounds and Long-chain Fatty Acids as Antifungal Agents”, Applied Microbiology, 9:538-541 (1961). The synergism value (QA/Qa+QB/Qb) was determined. […] Qa is the concentration of the first component alone (in percent by weight) required to yield 100% retardation of the bacteria or fungi. Qb is the concentration of the second component alone (in percent by weight) required to yield 100% retardation of the bacteria or fungi. […] Values for (QA/Qa+QB/Qb) of 1 and greater represent an additive effect and an antagonistic effect, respectively.

[1] = tested on: mixture of fungi (C. albicans (ATCC #10231) and A. brasiliensis (ATCC #16404)); experiment: CTFA Preservative Challenge Test in shampoo, mixed fungi; assay type: cell-based; settings: shampoo containing the sample; initial count 7.9×10^5 cfu/mL; surviving organisms on day 7
Experimental: as §1
From the table, synergism for the combinations above against mixed bacteria in shampoo was calculated by the method described in C. E. Kull et al., “Mixtures of Quaternary Ammonium Compounds and Long-chain Fatty Acids as Antifungal Agents”, Applied Microbiology, 9:538-541 (1961). The synergism value (QA/Qa+QB/Qb) was determined. […] Qa is the concentration of the first component alone (in percent by weight) required to yield 100% retardation of the bacteria or fungi. Qb is the concentration of the second component alone (in percent by weight) required to yield 100% retardation of the bacteria or fungi. When the value of (QA/Qa+QB/Qb) is less than one, the mixture is synergistic. Values for (QA/Qa+QB/Qb) of 1 and greater represent an additive effect and an antagonistic effect, respectively. […]

CC(=O)c1ccc(O)cc1 [0.35% hydroxyacetophenone, 4-hydroxyacetophenone]
concentration of the component alone required to yield 100% retardation (Qa, Qb) (mixture of bacteria): > 0.35% | Day 7 Count Mixed Bacteria (mixture of bacteria): 3.2 × 10^2 cfu/mL | Day 7 Count Mixed Fungi [1]: 1.5 × 10^2 cfu/mL

OCCCO [5% 1,3-propanediol, 1,3-propanediol]
concentration of the component alone required to yield 100% retardation (Qa, Qb) (mixture of bacteria): > 5% | Day 7 Count Mixed Bacteria (mixture of bacteria): 5.2 × 10^2 cfu/mL | Day 7 Count Mixed Fungi [1]: 9.2 × 10^2 cfu/mL
